Results taken from PubChem BioAssay AID2060901 (Molecular Pharmacology Branch, DTP, NCI, 2025).

Test system: 422866-222-R5-J1-PDC complex spheroids viability
Assay: Anticancer human tumor 422866-222-R5-J1-PDC patient-derived pancreatic adenocarcinoma cell line growth inhibition [RAS]
Details: for IC50: curve of first compound; for viability, T/C: stronger effect = lower value
Text: RAS pathway inhibitors in Combinations in Complex Spheroids
A high-throughput screen of multi-cell type tumor spheroids was designed to identify active combinations of RAS pathway inhibitors and targeted small molecules. Complex spheroids include a stromal component modeled by human endothelial cells (HUVEC) and fibroblasts modeled by human mesenchymal stem cells (MSCs). The concentration ranges selected for each drug and investigational agent were based upon clinically achievable concentrations if the clinical Cmax of the agent was known.
Compounds. The drugs and investigational agents: abemaciclib (NSC768073), cobimetinib (NSC768068), divarasib (GDC6063, NSC841802), docetaxel (NSC628503), GDC-1971 (RLY-1971, NSC841576), gemcitabine (NSC613327), inavolisib (NSC800729), ipatasertib (NSC767898), KB-0742 (NSC834161), MRTX-1133 (NSC836407), osimertinib (NSC779217), RMC-4630 (NSC839698), RMC-6236 (NSC851965), RMC-6291 (NSC852671), Ro-3306 (NSC812927), sapanisertib (NSC764658), SN-38 (NSC673596), staurosporine (NSC755774), SY5609 (NSC837396), and tovorafenib (DAY101, NSC766906), were obtained from the National Cancer Institute (NCI) Developmental Therapeutics Program Chemical Repository. The FDA-approved anticancer drug set is available from the NCI Developmental Therapeutics Program. […] The stock solutions were prepared in dimethyl sulfoxide (DMSO, Sigma-Aldrich, St. Louis, MO, cat. D2650) at 800-fold the tested concentration and stored at -70 degrees C prior to their use. All drugs and investigational agents were tested over a range starting from a high concentration at or near the clinical Cmax and decreasing in half-log increments. If the clinical Cmax for an agent had not been determined, the highest concentration tested was 10 microM.
Cell Culture. All cells were maintained in an incubator at 37 degrees C and 5% CO2 with 95% humidity. The PDC lines were cultured according to standard operating procedures established by the NCI PDMR. All PDCs were thawed and cultured in Matrigel-coated flasks prepared with a working solution of 1X Ham's F-12 nutrient mix, without supplementation (Invitrogen, Waltham, MA, cat. 11765054), 100 U/mL penicillin-streptomycin (Invitrogen, cat. 15140122), and 2.5% Matrigel (Corning Inc., Corning, NY, cat. 354248) for the first three passages. The 362531-283-R-J2-PDC and 782815-120-R-J1-PDC lines were cultured in 6C/Colon 1B media, which includes advanced DMEM/F-12 (Thermo Fisher Scientific, cat. 12634028), 10 mM HEPES (Thermo Fisher Scientific, cat. 15630080), 1X GlutaMAX supplement (Thermo Fisher Scientific, cat. 35050061), 0.1 mg/mL primocin (InvivoGen, San Diego, CA, cat. ant-pm-2), 10% defined fetal bovine serum, heat inactivated (HyClone Laboratories Inc., Logan, UT, cat. SH30070.03HI), 50% L-WRN conditioned media (ATCC, cat. CRL-3276), 1.25 mM N-Acetyl-L-cysteine (Sigma-Aldrich, cat. A9165), 10 mM nicotinamide (Sigma-Aldrich, cat. N0636), 1X B-27 supplement (Thermo Fisher Scientific, cat. 17504044), 1X N-2 supplement (Thermo Fisher Scientific, cat. 17502048), 50 ng/mL human EGF (Thermo Fisher Scientific, cat. PHG0311), and 10 microM Y-27632 dihydrochloride (Tocris Bioscience, cat. 1254). The K12877-001-R-J1-PDC line was cultured in 6I media, which includes all 6C/Colon 1B media plus 10 ng/mL human FGF-10 (PeproTech, cat. 100-26), 1 ng/mL human FGF-2 (PeproTech, cat. 100-18B), 1 µM prostaglandin E2 (Tocris Bioscience, cat. 2296), […] hydrocortisone (Sigma-Aldrich, cat. H4001), and […] bovine insulin (Sigma-Aldrich, cat. I6634). The K86415-001-R-J1-PDC line was cultured in 6D media, which includes all 6C/Colon 1B media components minus the L-WRN conditioned media. The 485176-168-R4-J1-PDC was cultured in PANC media, which includes all 6C/Colon 1B media plus 100 ng/mL human FGF-10 (PeproTech, cat. 100-26), 500 nM SB-431542 (Selleckchem, cat. S1067), and 10 nM gastrin (Tocris Bioscience, cat. 3006). […]

[1] = second compound 0.000949 µM, first compound 0.0316 µM
[2] = second compound 0.000949 µM, first compound 0.1 µM
[3] = second compound 0.000949 µM, first compound 0.316 µM
[4] = second compound 0.000949 µM, first compound 1 µM
[5] = second compound 0.003 µM, first compound 0.0316 µM
[6] = second compound 0.003 µM, first compound 0.1 µM
[7] = second compound 0.003 µM, first compound 0.316 µM
[8] = second compound 0.003 µM, first compound 1 µM
[9] = second compound 0.00949 µM, first compound 0.0316 µM
[10] = second compound 0.00949 µM, first compound 0.1 µM
[11] = second compound 0.00949 µM, first compound 0.316 µM
[12] = second compound 0.00949 µM, first compound 1 µM
[13] = second compound 0.03 µM, first compound 0.0316 µM
[14] = second compound 0.03 µM, first compound 0.1 µM
[15] = second compound 0.03 µM, first compound 0.316 µM
[16] = second compound 0.03 µM, first compound 1 µM
[17] = second compound 0.0949 µM, first compound 0.0316 µM
[18] = second compound 0.0949 µM, first compound 0.1 µM
[19] = second compound 0.0949 µM, first compound 0.316 µM
[20] = second compound 0.0949 µM, first compound 1 µM
[21] = second compound 0.3 µM, first compound 0.0316 µM
[22] = second compound 0.3 µM, first compound 0.1 µM
[23] = second compound 0.3 µM, first compound 0.316 µM
[24] = second compound 0.3 µM, first compound 1 µM
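Wherever viability, T/C is given: 100% = DMSO vehicle control viability.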

## NC1c2ccccc2OC12CCN(c1cnc3c(N4CCCc5ncccc54)n[nH]c3n1)CC2 (centres undefined) + CCn1c(-c2cc(N3CCN(C)CC3)cnc2C(C)OC)c2c3cc(ccc31)-c1csc(n1)CC(NC(=O)C1CC1C)C(=O)N1CCCC(N1)C(=O)OCC(C)(C)C2
Second compound 0.000949 µM
  IC50: < 31.6 nM
Second compound 0.003 µM
  IC50: < 31.6 nM
Second compound 0.00949 µM
  IC50: < 31.6 nM
Second compound 0.03 µM
  IC50: < 31.6 nM
Second compound 0.0949 µM
  IC50: < 31.6 nM
Second compound 0.3 µM
  IC50: < 31.6 nM
[1]
  viability, T/C: 20.1%
[2]
  viability, T/C: 18.4%
[3]
  viability, T/C: 14.1%
[4]
  viability, T/C: 16.4%
Second compound 0.000949 µM, first compound 3.16 µM
  viability, T/C: 18.4%
Second compound 0.000949 µM, first compound 10 µM
  viability, T/C: 18.5%
[5]
  viability, T/C: 19.2%
[6]
  viability, T/C: 15.6%
[7]
  viability, T/C: 14.8%
[8]
  viability, T/C: 16.3%
Second compound 0.003 µM, first compound 3.16 µM
  viability, T/C: 17.4%
Second compound 0.003 µM, first compound 10 µM
  viability, T/C: 19.8%
[9]
  viability, T/C: 16.1%
[10]
  viability, T/C: 15.2%
[11]
  viability, T/C: 14.6%
[12]
  viability, T/C: 14.7%
Second compound 0.00949 µM, first compound 3.16 µM
  viability, T/C: 18.5%
Second compound 0.00949 µM, first compound 10 µM
  viability, T/C: 16.5%
[13]
  viability, T/C: 17.2%
[14]
  viability, T/C: 16.4%
[15]
  viability, T/C: 16.7%
[16]
  viability, T/C: 16.8%
Second compound 0.03 µM, first compound 3.16 µM
  viability, T/C: 18.2%
Second compound 0.03 µM, first compound 10 µM
  viability, T/C: 17.9%
[17]
  viability, T/C: 17.5%
[18]
  viability, T/C: 18.4%
[19]
  viability, T/C: 16.9%
[20]
  viability, T/C: 19.2%
Second compound 0.0949 µM, first compound 3.16 µM
  viability, T/C: 18.5%
Second compound 0.0949 µM, first compound 10 µM
  viability, T/C: 18.9%
[21]
  viability, T/C: 18.6%
[22]
  viability, T/C: 19%
[23]
  viability, T/C: 20.5%
[24]
  viability, T/C: 19.2%
Second compound 0.3 µM, first compound 3.16 µM
  viability, T/C: 19.8%
Second compound 0.3 µM, first compound 10 µM
  viability, T/C: 22.7%

## O=C(c1ccc(F)c(F)c1Nc1ccc(I)cc1F)N1CC(O)([C@@H]2CCCCN2)C1 + CCn1c(-c2cccnc2C(C)OC)c2c3cc(ccc31)N1CCOC(CC(NC(=O)C(C(C)C)N(C)C(=O)C3(F)CCN(C(=O)C#CC(C)(C)N(C)C)CC3)C(=O)N3CCCC(N3)C(=O)OCC(C)(C)C2)C1
Second compound 0.000949 µM
  IC50: < 3.16 nM
Second compound 0.003 µM
  IC50: < 3.16 nM
Second compound 0.00949 µM
  IC50: < 3.16 nM
Second compound 0.03 µM
  IC50: < 3.16 nM
Second compound 0.0949 µM
  IC50: < 3.16 nM
Second compound 0.3 µM
  IC50: < 3.16 nM
Second compound 0.000949 µM, first compound 0.00316 µM
  viability, T/C: 27.1%
Second compound 0.000949 µM, first compound 0.01 µM
  viability, T/C: 26.5%
[1]
  viability, T/C: 21.4%
[2]
  viability, T/C: 16.9%
[3]
  viability, T/C: 14.8%
[4]
  viability, T/C: 14%
Second compound 0.003 µM, first compound 0.00316 µM
  viability, T/C: 23.4%
Second compound 0.003 µM, first compound 0.01 µM
  viability, T/C: 17.8%
[5]
  viability, T/C: 16.9%
[6]
  viability, T/C: 12.3%
[7]
  viability, T/C: 10.9%
[8]
  viability, T/C: 11.7%
Second compound 0.00949 µM, first compound 0.00316 µM
  viability, T/C: 26.2%
Second compound 0.00949 µM, first compound 0.01 µM
  viability, T/C: 19.9%
[9]
  viability, T/C: 16.2%
[10]
  viability, T/C: 14.1%
[11]
  viability, T/C: 11.1%
[12]
  viability, T/C: 9.8%
Second compound 0.03 µM, first compound 0.00316 µM
  viability, T/C: 19.6%
Second compound 0.03 µM, first compound 0.01 µM
  viability, T/C: 15.5%
[13]
  viability, T/C: 14.3%
[14]
  viability, T/C: 11.5%
[15]
  viability, T/C: 11.7%
[16]
  viability, T/C: 9.56%
Second compound 0.0949 µM, first compound 0.00316 µM
  viability, T/C: 16.5%
Second compound 0.0949 µM, first compound 0.01 µM
  viability, T/C: 13.1%
[17]
  viability, T/C: 13%
[18]
  viability, T/C: 9.14%
[19]
  viability, T/C: 11.8%
[20]
  viability, T/C: 10.4%
Second compound 0.3 µM, first compound 0.00316 µM
  viability, T/C: 15.7%
Second compound 0.3 µM, first compound 0.01 µM
  viability, T/C: 13.3%
[21]
  viability, T/C: 10.9%
[22]
  viability, T/C: 9.97%
[23]
  viability, T/C: 12.4%
[24]
  viability, T/C: 12.1%
